Numbered stars: 1 amine (or outer) side, 2 acyl side, 3 side chain; on linkers, the order of the positions; unused ones are H or OH. Bridge positions count the residues as written; N and C are the ends. Square brackets hold non-standard residues; d marks the D form. Peptide text beside a SMILES is read from it. Adda = CO[C@@H](Cc1ccccc1)[C@@H](C)/C=C(C)/C=C/[C@H](N[*:1])[C@H](C)C(=O)[*:2]; dAsp(3S-Me) = C[C@H](C(=O)[*:3])[C@@H](N[*:1])C(=O)[*:2]; d(γGlu) = O=C(O)[C@@H](CCC(=O)[*:2])N[*:1]; NMeDha = C=C(NC)C(=O)O
Assay: Percentage inhibition of murine protein phosphatase 2A at 1 mM.

Row | SMILES | inhibition [%]
1 | CC(C)C[C@H](NC(=O)[C@@H](C)N)C(=O)N[C@H](CC(=O)O)C(=O)N[C@@H](C)C(=O)NCCC(=O)N[C@H](CCC(=O)O)C(=O)N[C@@H](CC(=O)O)C(N)=O | 1
2 | CC(C)C[C@H](NC(=O)[C@@H](C)N)C(=O)NCCC(=O)N[C@@H](C)C(=O)N[C@@H](CC(=O)O)C(=O)N[C@@H](CCC(=O)N[C@@H](C)C(=O)O)C(=O)O | 12
3 | CC(C)C[C@H](NC(=O)[C@@H](C)N)C(=O)N[C@@H](CC(=O)N[C@@H](C)C(=O)N[C@@H](CC(=O)O)C(=O)N[C@H](CCC(=O)N[C@@H](C)C(=O)O)C(=O)O)C(=O)O | 21
4 | CC(C)C[C@H](NC(=O)[C@@H](C)N)C(=O)N[C@@H](CC(=O)N[C@@H](C)C(=O)NCCC(=O)N[C@H](CCC(=O)N[C@@H](CC(=O)O)C(N)=O)C(=O)O)C(=O)O | 11
5 | CC(C)C[C@H](NC(=O)[C@@H](C)NC(=O)[C@H](C)NC(=O)[C@@H](CCC(=O)O)NC(=O)CCN)C(=O)N[C@H](CC(=O)O)C(=O)N[C@@H](C)C(=O)O | 16
6 | C[C@H](NC(=O)[C@@H](CC(=O)O)NC(=O)[C@H](C)NC(=O)[C@@H](CCC(=O)O)NC(=O)CCN)C(=O)O | 30
7 | CC(C)C[C@H](NC(=O)[C@@H](C)NC(=O)[C@H](C)NC(=O)[C@@H](CCC(=O)O)NC(=O)[C@@H](N)CS)C(=O)N[C@H](CC(=O)O)C(=O)N[C@@H](C)C(=O)O | 22
8 | CC(C)C[C@H](NC(=O)[C@@H](C)NC(=O)[C@H](C)NC(=O)CC[C@@H](NC(=O)CCN)C(=O)O)C(=O)N[C@H](CC(=O)N[C@@H](C)C(=O)O)C(=O)O | 15
9 | CC(C)C[C@H](NC(=O)[C@@H](C)N)C(=O)N[C@H](CC(=O)O)C(=O)N[C@@H](C)C(=O)N[C@@H](CC(=O)O)C(=O)N[C@H](CCC(=O)O)C(=O)N[C@@H](C)C(=O)O | 11
10 | CC(C)C[C@H](NC(=O)[C@@H](C)N)C(=O)N[C@@H](CC(=O)N[C@@H](C)C(=O)N[C@@H](CS)C(=O)N[C@H](CCC(=O)N[C@@H](CC(=O)O)C(N)=O)C(=O)O)C(=O)O | 18
11 | CC(C)C[C@H](NC(=O)[C@@H](C)N)C(=O)NCCC(=O)N[C@@H](C)C(=O)N[C@H](CC(=O)O)C(=O)N[C@H](CCC(=O)O)C(=O)N[C@@H](C)C(=O)O | 14
12 | C[C@H](NC(=O)C[C@H](NC(=O)[C@H](C)NC(=O)CC[C@@H](NC(=O)CCN)C(=O)O)C(=O)O)C(=O)O | 19
13 | CC(C)C[C@H](NC(=O)[C@@H](C)NC(=O)[C@H](C)NC(=O)CC[C@@H](NC(=O)[C@@H](N)CS)C(=O)O)C(=O)N[C@H](CC(=O)N[C@@H](C)C(=O)O)C(=O)O | 19
14 | CC(C)C[C@H](NC(=O)[C@@H](C)N)C(=O)N[C@H](CC(=O)O)C(=O)N[C@@H](C)C(=O)N[C@@H](CS)C(=O)N[C@H](CCC(=O)O)C(=O)N[C@@H](CC(=O)O)C(N)=O | 17
15 | CC(C)C[C@H]1NC(=O)[C@H](C)NC(=O)[C@@H](CC(=O)O)NC(=O)[C@H](CCC(=O)O)NC(=O)CCNC(=O)[C@@H](C)NC(=O)[C@H](CC(=O)O)NC1=O | 21
16 | CC(C)C[C@H](NC(=O)[C@@H](C)N)C(=O)N[C@@H](CC(=O)N[C@@H](C)C(=O)N[C@@H](C)C(=O)N[C@@H](CCC(=O)N[C@@H](C)C(=O)O)C(=O)O)C(=O)O | 22
17 | CC(C)C[C@@H]1NC(=O)[C@@H](C)NC(=O)[C@H](CC(=O)O)NC(=O)[C@@H](CCC(=O)O)NC(=O)[C@H](CS)NC(=O)[C@H](C)NC(=O)[C@@H](CC(=O)O)NC1=O | 86
18 | CC(C)C[C@H]1NC(=O)[C@H](C)NC(=O)[C@@H](C)NC(=O)CC[C@@H](C(=O)O)NC(=O)CCNC(=O)[C@@H](C)NC(=O)C[C@@H](C(=O)O)NC1=O | 3
19 | CC(C)C[C@H]1NC(=O)[C@H](C)NC(=O)[C@@H](CC(=O)O)NC(=O)CCCNC(=O)CCNC(=O)[C@@H](C)NC(=O)C[C@@H](C(=O)O)NC1=O | 42
20 | CC(C)C[C@H](NC(=O)[C@@H](C)N)C(=O)N[C@@H](CC(=O)N[C@@H](C)C(=O)NCCC(=O)N[C@H](CCC(=O)N[C@@H](C)C(=O)O)C(=O)O)C(=O)O | 12
21 | CC(C)C[C@H]1NC(=O)[C@H](C)NC(=O)[C@@H](CC(=O)O)NC(=O)CCCNC(=O)[C@@H](CS)NC(=O)[C@@H](C)NC(=O)C[C@@H](C(=O)O)NC1=O | 45

Assay: Compound was tested for inhibition of protein phosphatase 2A (PP2A).

Row | SMILES | IC50 [mM]
22 | C=C1C(=O)N[C@H](C)C(=O)N[C@@H](CC(C)C)C(=O)N[C@@H](C(=O)O)[C@H](C)C(=O)N[C@@H](CCCNC(=N)N)C(=O)N[C@@H](/C=C/C(C)=C/[C@H](C)[C@H](Cc2ccccc2)OC)[C@H](C)C(=O)N[C@@H](C(=O)O)CCC(=O)N1C [MICROCYSTIN-LR] (R[Adda][d(γGlu)][NMeDha][dA]L[dAsp(3S-Me)]-OH; lactam N-7) | 0.2
23 | C[C@H](NC(=O)[C@@H](CC(=O)O)NC(=O)[C@H](C)NC(=O)[C@@H](CCC(=O)O)NC(=O)CCN)C(=O)O | 10
24 | CC(C)C[C@@H]1NC(=O)[C@@H](C)NC(=O)[C@H](CC(=O)O)NC(=O)[C@@H](CCC(=O)O)NC(=O)[C@H](CS)NC(=O)[C@H](C)NC(=O)[C@@H](CC(=O)O)NC1=O | 0.5
25 | CC(C)C[C@H]1NC(=O)[C@H](C)NC(=O)[C@@H](CC(=O)O)NC(=O)CCCNC(=O)[C@@H](CS)NC(=O)[C@@H](C)NC(=O)C[C@@H](C(=O)O)NC1=O | 10

— ChEMBL document CHEMBL1129159, “Inhibition of protein phosphatase 2A by cyclic peptides modelled on the microcystin ring” (Bioorg Med Chem Lett, 1996)
